# Test results: ChEMBL document CHEMBL1122687, “Sulfur analogues of psychotomimetic agents. 3. Ethyl homologues of mescaline and their monothio analogues” (1984)
# Columns and labels:
# Homo sapiens [1] = organism: Homo sapiens; experiment: Psychotomimetic potency of compound relative to that of mescaline (Human potency of mescaline = 1 MU); format: functional
# Homo sapiens [2] = organism: Homo sapiens; experiment: Psychotomimetic potency of compound relative to that of mescaline(Human potency of mescaline = 1 MU); format: functional
Compound,Relative activity (Homo sapiens [1]),Relative activity (Homo sapiens [2])
CCOc1cc(CCN)cc(OCC)c1SCC,<1,–
COc1cc(CCN)cc(SC)c1OC,–,6
CCOc1c(OC)cc(CCN)cc1SCC,2,–
CCOc1cc(CCN)cc(SC)c1OC,<1,–
CCCSc1c(OC)cc(CCN)cc1OC,16,–
CCOc1cc(CCN)cc(OC)c1SC,4,–
CCOc1cc(CCN)cc(SC)c1OCC,2,–
CCOc1cc(CCN)cc(SCC)c1OCC,<1,–
CCCCSc1c(OC)cc(CCN)cc1OC,3,–
CCOc1c(OC)cc(CCN)cc1SC,6,–
CCOc1cc(CCN)cc(OC)c1OCC,1.5,–
CCOc1cc(CCN)cc(SCC)c1OC,<1,–
CCOc1cc(CCN)cc(OC)c1OC,1,–
COc1cc(CCN)cc(OC)c1SC,12,–
CCOc1cc(CCN)cc(OCC)c1SC,<1,–
CCOc1c(OC)cc(CCN)cc1OC,6,–
CCSc1c(OC)cc(CCN)cc1OC,20,–
CCCCOc1c(OC)cc(CCN)cc1OC,2,–
COc1cc(CCN)cc(OC)c1OC [MESCALINE],–,1
CCOc1cc(CCN)cc(OCC)c1OCC,<1,–
CCCOc1c(OC)cc(CCN)cc1OC,10,–
CCOc1cc(CCN)cc(OC)c1SCC,4,–
CCOc1cc(CCN)cc(OCC)c1OC,<1,–
CCCOc1cc(CCN)cc(OC)c1OC,<1,–
CCSc1cc(CCN)cc(OC)c1OC,6,–
